Test results reported in PubChem BioAssay AID179 (DTP/NCI, 2004).
Calls of active or inactive are those of the source.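 The calls were made as follows: active = compounds giving half or more protection of infected cells from virus-caused growth loss, again on retest; inactive = the rest.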 Where a SMILES comes first, the peptide text is derived from it. Bridges are numbered along the chain shown (N, C = ends). Roman numbers before positions name the chains, in order. The star is where a group is joined. Cbz = O=C(OCc1ccccc1)*

Tested on: CEM cells HIV-1 protection, formazan growth assay
Test: NCI AIDS Antiviral Assay
Settings: for IC50: measured here: growth of uninfected CEM cells
Summary of the method: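 Protection of CEM cells against HIV-1 measured as cell growth via soluble formazan read-out, with five concentrations tested on both infected and uninfected cells; failure to protect may reflect toxicity.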

Structure (SMILES) | EC50 [µM] | IC50 [µM] | outcome
C=CCc1ccc(O)c(-c2cc(C3Oc4c(-c5cc(CC=C)ccc5O)cc(O)cc4[C@@H]3CO)ccc2O)c1 (some centres undefined) | > 100 | 91.2 | –
O=c1[nH]c(=O)n(C2OC(CO)C(O)C2O)c2nccnc12 (centres undefined) | > 200 | > 200 | –
CCCCCCCCCCCCCCCCP(=O)(O)OCC(N)C(=O)O (centres undefined) | > 200 | 95.5 | –
CCOC1=NC(O)c2cccn2-c2sccc21 (centres undefined) | > 200 | 126 | –
Cc1cc(Br)cc(C)c1NC(=O)C(=O)CC(=O)c1sc(-n2nc(-c3ccccc3)cc2-c2ccccc2)nc1C | – | – | inactive
CC1CN=C(c2ccc(NC(=O)c3ccc(C(=O)Nc4ccc(C5=NCC(C)CN5)cc4)cc3)cc2)NC1 (centres undefined) | > 200 | 25.1 | –
CC1(C)OCN(c2ccc(S(N)(=O)=O)cc2)Cn2c1nc1ccccc12 | > 200 | 117 | –
Cn1c2ccccc2c(=Nc2ccc(S(N)(=O)=O)cc2)c2ccccc21 | – | – | inactive
COc1cccc(NC(=O)CSc2nnc(Cc3ccccc3)o2)c1 | > 100 | > 100 | –
CN(C)c1ccc(/C=C2\C=Cc3ccccc32)cc1 | – | – | inactive
CCCC#CCC(CC#CCCC)(C(=O)O)C(=O)O | > 490 | > 490 | –
O=C(CC1=NC2NN(c3ccccc3)C(=O)C2=C1CC(=O)c1ccccc1)c1ccccc1 (centres undefined) | > 575 | 174 | –
CCC(O)CCCCCCCCCCCCCCC(=O)O (centres undefined) | – | – | inactive
C=C1C(=O)OC2C1CC[C@H](C)C13OC(=O)CC1[C@@]23C (some centres undefined) | – | – | inactive
CN(C)P(=O)(N(C)C)N(C)C.[CH3][Sn]([CH3])([Cl])[Cl] | – | – | inactive
CC(C)NC1CCCCC2c3cc(F)ccc3[C@]12O (some centres undefined) | 60.3 | > 200 | –
C1CCC(CSSCC2(N3CCCC3)CCCCC2)(N2CCCC2)CC1 | > 200 | > 100 | –
Cc1ccc(N=Nc2c(C)nn(-c3ccccc3)c2C)c(Br)c1 | – | – | inactive
CCOC(=O)C1Nc2ccc([N+](=O)[O-])cc2[C@H]2OCC[C@@H]12 (some centres undefined) | > 447 | > 447 | –
ON=C1/C(=N\O)CCC/C1=N/O | > 1050 | 19.1 | –
CC(C(N)C(=O)NC(C(=O)O)C1OC(c2c[nH]c(=O)[nH]c2=O)C(O)C1O)C(O)c1ccc(O)cn1 (centres undefined) | – | – | inactive
CNC(=O)NCNC(=O)NC | > 562 | > 562 | –

Structure (SMILES) | EC50 [µM] | IC50 [µM] | outcome
OCC(O)COc1c(Cl)ccc(Cl)c1Cl (centres undefined) | 87.1 | 275 | –
C/C=C/C=C1\C=Cc2c(C(=O)OC)coc(=O)c21 | > 200 | 35.5 | –
Cc1ccc(F)cc1NC(=O)O/N=C(\Cl)C(C)C | > 20 | 3.8 | –
CCCN1CC=C(c2cc(C(=O)OCC)[nH]c2-c2cc(C)no2)C1=O | > 200 | 107 | –
O=C(C[N+]12CC=C(CO)C1C(O)CC2)c1ccc(Br)cc1 (centres undefined) | > 575 | > 575 | –
COC1/C=C/OC2(C)Oc3c(C)c(O)c4c(O)c(c(/C=N/Nc5ccc([N+](=O)[O-])cc5[N+](=O)[O-])c(O)c4c3C2=O)NC(=O)C(C)=C/C=C/C(C)C(O)C(C)C(O)C(C)C(OC(C)=O)C1C (centres undefined) | > 200 | 7.08 | –
c1ccc(CN(Cc2ccccn2)Cc2ccccn2)nc1 | > 200 | 3.16 | –
N#CC12C(=O)NC(=O)C1(C#N)C2c1ccccc1 (centres undefined) | > 501 | > 501 | –
CCOC1OC(c2ccccc2)=NS(=O)(=O)C1(C)C (centres undefined) | > 891 | 513 | –
N#CC1C(=O)N(c2ccccc2)NC12OC(=O)c1ccncc12 (centres undefined) | > 200 | > 200 | –
O=C(O)c1ccccc1P(=O)(O)c1ccccc1 | > 200 | > 200 | –
CC/C=C1\N=C(c2ccc(Cl)cc2)OC1=O | > 151 | 126 | –
CCOc1c(OC)cc(CNNc2nccs2)cc1OC | > 200 | 89.1 | –
CCCCCC(=O)n1[nH]c(=O)n(-c2ccc(OC)cc2)c1=O | > 200 | > 200 | –
O=S(=O)(O)CN(CCN(CS(=O)(=O)O)CS(=O)(=O)O)CS(=O)(=O)O | > 200 | 20.4 | –
CC1OC(OC2C(O)COC(OC3C(C)OC(OC4C(OC(=O)[C@]56CCC(C)(C)C[C@@H]5C5=CCC7[C@@]8(C)C[C@H](O)[C@H](OC9OC(CO)C(O)C(O)C9O)[C@@](C)(CO)[C@@H]8CC[C@@]7(C)[C@]5(C)CC6)OCC(O)C4O)C(O)C3OC3OCC(O)C(O)C3O)C2O)C(O)C(O)C1O (some centres undefined) | > 58.9 | 19.5 | –
O=C(O)c1cc(=O)c2c(OCC(O)COc3cccc4oc(C(=O)O)cc(=O)c34)cccc2o1 | > 200 | > 200 | –
Cc1ccc(SSC(=S)Nc2ccccc2)cc1 | – | – | inactive
CN(N=O)C(=O)NC(CCCCNC(=O)OCc1ccccc1)C(=O)OCc1ccccc1 (centres undefined) | > 21.9 | > 21.9 | –
O=C(Nc1ccccc1[N+](=O)[O-])/C(=N/Nc1cccc(Cl)c1)c1c(O)c2ccccc2oc1=O | > 53.7 | > 53.7 | –
CO/C(=N\N=C\c1ccc(Cl)c(Cl)c1)c1ccncc1 | > 23.4 | > 23.4 | –
CC(C)N1CCN(C(C)C)CCN(C(C)C)CC1.[O]=[Mo](=[O])=[O] | > 100 | 75.9 | –

Structure (SMILES) | EC50 [µM] | IC50 [µM] | outcome
COc1ccc(CC2C(=O)NC(C)C(=O)N(C)C3Cc4ccc(cc4)Oc4cc(ccc4O)CC(C(=O)NC(C)C(=O)NC(C)C(=O)N2C)N(C)C3=O)cc1 (centres undefined) | > 0.2 | 0.0631 | –
CCOC(=O)C(=O)Nc1c(F)cc(F)cc1Br | > 813 | > 813 | –
N#CC(C#N)c1ccc(C(=O)N2CCC[C@H]2CO)cc1 | – | – | inactive
O=C1OC(c2cccc(C(F)(F)F)c2)c2ccc3ccccc3c21 (centres undefined) | – | – | inactive
COC(=O)/C=C(C)/C=C/C1OC(C)OCC1O (centres undefined) | > 1020 | > 1020 | –
O=C(N/C(=C\c1ccc(F)cc1)c1nc2ccccc2[nH]1)c1ccccc1 | > 191 | > 191 | –
[N-]=[N+]=CC(=O)OC(CCl)CCl | > 200 | > 200 | –
O=C(O)c1ccc2c3c(ncnc13)-c1ccccc1C2=O | > 200 | 14.8 | –
O=C(/N=N/C(=O)Oc1ccccc1)Oc1ccccc1 | > 200 | 33.1 | –
c1ccc2c(c1)N=c1ccccc1=P21c2ccccc2Nc2ccccc21 | > 2 | 0.214 | –
CN(C)CCCNC(=O)c1cc(NC(=O)c2cc(NC(=O)c3cc(NC(=O)c4ccccc4C(=O)O)cn3C)cn2C)cn1C | > 200 | > 200 | –
CC(C)C(NC(=O)C(CSSCC(NC(=O)OCc1ccccc1)C(=O)NC(C(=O)O)C(C)C)NC(=O)OCc1ccccc1)C(=O)O (stereo not drawn) (I: Cbz-Cys-Val-OH / II: Cbz-Cys-Val-OH; disulfide I:1-II:1; configuration not given here) | > 200 | 112 | –
NC(=O)c1[nH]nc(C2OC(CO)C(O)C2O)c1O (centres undefined) | > 955 | 0.309 | –
CCc1cccc(C(C)C)c1NC(=O)C(=O)CC(=O)c1sc(Nc2c(CC)cccc2C(C)(C)C)nc1C | > 200 | 60.3 | –
COC(=O)/C(C#N)=C\NC(=S)NNC(C)=O | > 200 | > 200 | –
Cc1cc(C)c(C(=O)c2cccc(C)c2C(=O)O)c(C)c1 | > 200 | > 200 | –
C[C@H](CCCN1CCN(C)CC1)[C@H]1CC[C@H]2[C@@H]3CC[C@@H]4C[C@H](O)CC[C@]4(C)[C@H]3CC[C@]12C | > 50.1 | 3.09 | –
O=c1oc2ccccc2c(O)c1/C=N/C(=S)Nc1ccccc1 | > 200 | 51.3 | –
N#CC12Cc3cc4c(cc3-c3cccc(c31)CCN2C(=O)c1ccccc1)OCO4 (centres undefined) | – | – | inactive
CC(=O)OC1CSS(=O)CC1OC(C)=O (centres undefined) | > 513 | 22.9 | –
N/C(Cc1ccc(Cl)cc1)=N/O | > 200 | > 200 | –
CC(C)N(CCn1c2c3ccccc3ccc2c2oc(=O)c3ccccc3c21)C(C)C | > 22.4 | > 22.4 | –

Structure (SMILES) | EC50 [µM] | IC50 [µM] | outcome
Cc1ccc2c(c1)C(=C(C#N)C#N)CCCS2(=O)=O | > 200 | > 200 | –
COc1ccc2c(c1)CCC1=C2CC(=O)N2CCCCN12 | > 91.2 | > 91.2 | –
CCCNC(=O)N(C(C)(C)C)S(=O)(=O)c1ccc(Cl)cc1 | – | – | inactive
COC(=O)C(C(=O)C(=O)Nc1ccccc1C#N)c1nc2ccc([N+](=O)[O-])cc2[nH]c1=O (centres undefined) | > 16.6 | > 16.6 | –
COc1ccc(N/N=C(\CCN(C)C)c2ccccc2)cc1 | – | – | inactive
COc1ccc(S(=O)(=O)n2c3c(c4ccccc42)[C@@H]2[C@@H](CCCN2C(=O)CS(=O)c2ccc(C)cc2)[C@H](Cl)C3)cc1 (some centres undefined) | > 200 | > 200 | –
CC(=O)OI1NC(=O)c2ccccc21 | 36.3 | 126 | –
COC(=O)/C(=C\C(=O)c1ccc(Br)cc1)NN=C(c1ccccc1)c1ccccc1 | > 200 | > 200 | –
CC1C2CC(CC2O)C1(C)C (centres undefined) | > 1620 | > 1620 | –
CO/C(=N\N=C\c1ccc(OC)c(OC)c1)c1ccncc1 | > 437 | 295 | –
CCCCCC1c2c(cc(C)[nH]c2=O)OC(O)C1CCCC (centres undefined) | > 126 | > 126 | –
CCCCC1=NNC(=O)C1 | > 200 | > 200 | –
O=C(O)Cn1ncn(NC(=O)Cc2ccccc2)c1=S | > 200 | > 200 | –
CC(C)=[CH][Sb]([Br])([CH]=C(C)C)([CH]=C(C)C)[CH]=C(C)C | > 589 | 3.02 | –
CSCCC(NCc1c(O)ccc2c(-c3ccccc3)cc(=O)oc12)C(=O)O (centres undefined) | > 200 | > 200 | –
Cc1ccc(SSCCCCS(=O)O)cc1 | – | – | inactive
CC(C)OC(=O)[C@@H]1OC(C)(C)O[C@H]1C(=O)OC(C)C | > 200 | > 200 | –
COC(=O)C1CC2(CCC1=O)Cc1ccccc1C2=O (centres undefined) | > 200 | 72.4 | –
N/C(CSCCSC/C(N)=N/O)=N\O | > 200 | > 200 | –
CC(=O)O[C@H]1CC[C@]2(C)C3=CC[C@]4(C)[C@@H](C(C)=O)CC[C@H]4[C@@]34C=C[C@]2(C1)C1C(=O)OC(=O)C14 (some centres undefined) | > 200 | 70.8 | –
CCCCCCCCCCCCCCCCOP(=O)(O)OP(=O)(O)OCC1OC(n2ccc(N)nc2=O)CC1O (centres undefined) | > 100 | > 100 | –
